Assay results as given in patent US9845319B2, “Amide substituted thiazoles as modulators of RORyt” (Janssen Pharmaceutica NV, priority 2014, dated 2017).

Tests used:
full-length human RORγt = biological target: T1, full-length human RORγt (Homo sapiens, UniProt P51449); assay: RORγt (full-length human) Reporter Assay, Conditions A; format: cell-based; settings: for IC50: HEK293T cells, GAL4-DBD-RORγt, luciferase, read-out: RORγt (FL) Reporter Assay A, IC50; for inhibition at 6 µM: read-out: RORγt (FL) Reporter Assay A, % inhibition @ 6 μM, 6 μM compound; for inhibition at 2 µM: read-out: RORγt (FL) Reporter Assay A, % inhibition (* at 2 μM), 2 μM compound concentration (footnote *)
T1 construct: expressed in transfected cells; host or cells: HEK293T, transiently transfected with pCMV-BD-ROR
T1 sequence (P51449 1-497 isoform P51449-2): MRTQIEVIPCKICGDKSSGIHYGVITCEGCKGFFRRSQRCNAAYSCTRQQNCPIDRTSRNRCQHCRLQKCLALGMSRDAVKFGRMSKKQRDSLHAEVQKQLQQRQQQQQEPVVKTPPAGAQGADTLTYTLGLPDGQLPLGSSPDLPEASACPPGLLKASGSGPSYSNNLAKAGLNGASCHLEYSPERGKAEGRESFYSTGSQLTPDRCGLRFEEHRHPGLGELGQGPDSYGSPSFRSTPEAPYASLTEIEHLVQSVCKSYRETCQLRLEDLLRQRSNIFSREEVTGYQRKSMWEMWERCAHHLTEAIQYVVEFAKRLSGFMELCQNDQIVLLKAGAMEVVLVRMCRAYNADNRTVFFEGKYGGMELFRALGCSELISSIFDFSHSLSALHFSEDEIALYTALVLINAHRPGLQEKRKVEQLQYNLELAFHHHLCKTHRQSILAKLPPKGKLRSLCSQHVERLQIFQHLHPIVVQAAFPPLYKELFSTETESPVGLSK
In short: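 Reporter cells lysed after 16–20 h compound exposure; firefly and Renilla luciferase luminescence measured. Firefly signal normalised to DMSO and saturating reference compound, then to Renilla; IC50 from normalised data versus concentration, percent inhibition relative to DMSO.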

[1] = biological target: T2, human RORγt ligand binding domain (RORγt LBD) (Homo sapiens, UniProt P51449); assay: RORγt ThermoFluor assay; settings: estimated from thermal shift concentration response
T2 construct: His-tag (N); TurboTEV protease cleavage site (ENLYFQG) (N); made in house; host or cells: E. coli (pHIS1, a modified pET expression vector)
T2 sequence (P51449 with tags, fused parts or gaps): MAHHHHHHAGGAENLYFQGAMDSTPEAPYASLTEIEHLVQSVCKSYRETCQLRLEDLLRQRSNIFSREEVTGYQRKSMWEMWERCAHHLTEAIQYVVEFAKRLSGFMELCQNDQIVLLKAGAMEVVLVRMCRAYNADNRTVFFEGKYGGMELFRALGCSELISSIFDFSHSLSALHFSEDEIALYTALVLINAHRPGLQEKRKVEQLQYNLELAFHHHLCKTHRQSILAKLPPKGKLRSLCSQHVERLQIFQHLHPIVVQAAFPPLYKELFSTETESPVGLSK
In short: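 Thermal shift of RORγt LBD (0.065 mg/mL) with 60 μM 1,8-ANS in 100 mM Hepes pH 7.0, NaCl, GSH, 0.002% Tween-20, heated at 1° C/min. ANS fluorescence tracked versus temperature; ΔTm relative to DMSO wells. Compounds serially diluted 1:2 from 10 mM DMSO stock.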

| IC50 (full-length human RORγt) [nM] | inhibition at 6 µM (full-length human RORγt) [%] | Kd [1] [nM] | inhibition at 2 µM (full-length human RORγt) [%] | SMILES |
| --- | --- | --- | --- | --- |
| 120 | 102 | 290 | – | CCN(CC)C(=O)c1nc(-c2nnc(C)o2)sc1-c1ccc(S(=O)(=O)N[C@@H](C)C(F)(F)F)c(Cl)c1Cl [Example 7, (S)-5-(2,3-Dichloro-4-(N-(1,1,1-trifluoropropan-2-yl)sulfamoyl)phenyl)-N,N-diethyl-2-(5-methyl-1,3,4-oxadiazol-2-yl)thiazole-4-carboxamide] |
| 61 | 108 | 5.6 | – | C[C@H](NS(=O)(=O)c1ccc(-c2sc(-c3nnc(C(C)(C)O)o3)nc2C(=O)N2CCC(F)(F)CC2)c(Cl)c1F)C(F)(F)F [Example 8/1, (S)-3-Chloro-4-(4-(4,4-difluoropiperidine-1-carbonyl)-2-(5-(2-hydroxypropan-2-yl)-1,3,4-oxadiazol-2-yl)thiazol-5-yl)-2-fluoro-N-(1,1,1-trifluoropropan-2-yl)benzenesulfonamide] |
| 51 | – | 1.7 | 104 | CC(C)(O)c1nnc(-c2nc(C(=O)N3CCC(F)(F)CC3)c(-c3ccc(CC(O)(C(F)(F)F)C(F)(F)F)c(Cl)c3Cl)s2)o1 [Example 8/2, (5-(2,3-Dichloro-4-(3,3,3-trifluoro-2-hydroxy-2-(trifluoromethyl)propyl)phenyl)-2-(5-(2-hydroxypropan-2-yl)-1,3,4-oxadiazol-2-yl)thiazol-4-yl)(4,4-difluoropiperidin-1-yl)methanone] |
| 83 | – | 6.3 | 104 | CC(C)(O)c1nnc(-c2nc(C(=O)N3CCC(F)(F)CC3)c(-c3ccc(CC(O)(C(F)(F)F)C(F)(F)F)c(Cl)c3)s2)o1 [Example 8/3, (5-(3-Chloro-4-(3,3,3-trifluoro-2-hydroxy-2-(trifluoromethyl)propyl)phenyl)-2-(5-(2-hydroxypropan-2-yl)-1,3,4-oxadiazol-2-yl)thiazol-4-yl)(4,4-difluoropiperidin-1-yl)methanone] |
| 120 | – | 32 | 99 | CCN(CC)C(=O)c1nc(-c2nnc(C(C)(C)O)[nH]2)sc1-c1ccc(C(O)(C(F)(F)F)C(F)(F)F)c(Cl)c1Cl [Example 9, 5-(2,3-Dichloro-4-(1,1,1,3,3,3-hexafluoro-2-hydroxypropan-2-yl)phenyl)-N,N-diethyl-2-(5-(2-hydroxypropan-2-yl)-4H-1,2,4-triazol-3-yl)thiazole-4-carboxamide] |
| 67 | – | 27 | 99 | CCN(CC)C(=O)c1nc(-c2nncn2CC(C)(C)O)sc1-c1ccc(C(O)(C(F)(F)F)C(F)(F)F)c(Cl)c1Cl [Example 9/1, 5-(2,3-Dichloro-4-(1,1,1,3,3,3-hexafluoro-2-hydroxypropan-2-yl)phenyl)-N,N-diethyl-2-(4-(2-hydroxy-2-methylpropyl)-4H-1,2,4-triazol-3-yl)thiazole-4-carboxamide] |
| 28 | – | 0.71 | 104 | C[C@H](NS(=O)(=O)c1ccc(-c2sc(-c3nnc(C(C)(C)O)[nH]3)nc2C(=O)N2CC(F)(F)C[C@@H]2C)c(Cl)c1Cl)C(F)(F)F [Example 9/2, 2,3-Dichloro-4-(4-((S)-4,4-difluoro-2-methylpyrrolidine-1-carbonyl)-2-(5-(2-hydroxypropan-2-yl)-4H-1,2,4-triazol-3-yl)thiazol-5-yl)-N—((S)-1,1,1-trifluoropropan-2-yl)benzenesulfonamide] |
| 61 | – | 1.2 | 104 | C[C@H](NS(=O)(=O)c1ccc(-c2sc(-c3nnc(C(C)(C)O)[nH]3)nc2C(=O)N2CCC(F)(F)CC2)c(Cl)c1Cl)C(F)(F)F [Example 9/3, (S)-2,3-Dichloro-4-(4-(4,4-difluoropiperidine-1-carbonyl)-2-(5-(2-hydroxypropan-2-yl)-4H-1,2,4-triazol-3-yl)thiazol-5-yl)-N-(1,1,1-trifluoropropan-2-yl)benzenesulfonamide] |

More lines, now with the values behind:

| SMILES | IC50 (full-length human RORγt) [nM] | inhibition at 6 µM (full-length human RORγt) [%] | Kd [1] [nM] | inhibition at 2 µM (full-length human RORγt) [%] |
| --- | --- | --- | --- | --- |
| CC(C)(O)c1nnc(-c2nc(C(=O)N3CCC(F)(F)CC3)c(-c3ccc(S(=O)(=O)NC4(C(F)F)CC4)c(F)c3Cl)s2)o1 [Example 6/17, 3-Chloro-N-(1-(difluoromethyl)cyclopropyl)-4-(4-(4,4-difluoropiperidine-1-carbonyl)-2-(5-(2-hydroxypropan-2-yl)-1,3,4-oxadiazol-2-yl)thiazol-5-yl)-2-fluorobenzenesulfonamide] | 100 | 105 | 21 | – |
| C[C@H](NS(=O)(=O)c1ccc(-c2sc(-c3nnc(C(C)(C)O)o3)nc2C(=O)N2CCCC[C@@H]2C)c(C(F)F)c1F)C(F)(F)F [Example 6/18, 3-(Difluoromethyl)-2-fluoro-4-(2-(5-(2-hydroxypropan-2-yl)-1,3,4-oxadiazol-2-yl)-4-((S)-2-methylpiperidine-1-carbonyl)thiazol-5-yl)-N—((S)-1,1,1-trifluoropropan-2-yl)benzenesulfonamide] | 82 | 104 | 1 | – |
| CC(C)(O)c1nnc(-c2nc(C(=O)N3CCC(F)(F)CC3)c(-c3ccc(S(=O)(=O)NC(C)(C)C(F)(F)F)c(F)c3Cl)s2)o1 [Example 6/19, 3-Chloro-4-(4-(4,4-difluoropiperidine-1-carbonyl)-2-(5-(2-hydroxypropan-2-yl)-1,3,4-oxadiazol-2-yl)thiazol-5-yl)-2-fluoro-N-(1,1,1-trifluoro-2-methylpropan-2-yl)benzenesulfonamide] | 76 | 107 | 6.1 | – |
| CC[C@H](NS(=O)(=O)c1ccc(-c2sc(-c3nnc(C(C)(C)O)o3)nc2C(=O)N(CC)CC)c(Cl)c1F)C(F)(F)F [Example 6/20, (S)-5-(2-Chloro-3-fluoro-4-(N-(1,1,1-trifluorobutan-2-yl)sulfamoyl)phenyl)-N,N-diethyl-2-(5-(2-hydroxypropan-2-yl)-1,3,4-oxadiazol-2-yl)thiazole-4-carboxamide] | 43 | – | 11 | 102 |
| C[C@H](NS(=O)(=O)c1ccc(-c2sc(-c3nnc(C(C)(C)O)o3)nc2C(=O)N2CC(F)C[C@@H]2C)c(C(F)F)c1F)C(F)(F)F (stereo partly drawn) [Example 6/21, 3-(Difluoromethyl)-2-fluoro-4-(4-((2S)-4-fluoro-2-methylpyrrolidine-1-carbonyl)-2-(5-(2-hydroxypropan-2-yl)-1,3,4-oxadiazol-2-yl)thiazol-5-yl)-N—((S)-1,1,1-trifluoropropan-2-yl)benzenesulfonamide] | 410 | 102 | 270 | – |
| CC(C)(O)c1nnc(-c2nc(C(=O)N3CC(F)(F)CC3(C)C)c(-c3ccc(S(=O)(=O)NC4(C(F)F)CC4)c(F)c3Cl)s2)o1 [Example 6/22, 3-Chloro-4-(4-(4,4-difluoro-2,2-dimethylpyrrolidine-1-carbonyl)-2-(5-(2-hydroxypropan-2-yl)-1,3,4-oxadiazol-2-yl)thiazol-5-yl)-N-(1-(difluoromethyl)cyclopropyl)-2-fluorobenzenesulfonamide] | 1600 | 74 | 1200 | – |
| CN(CC(F)(F)F)S(=O)(=O)c1ccc(-c2sc(-c3nnc(C(C)(C)O)o3)nc2C(=O)N2CCC(F)(F)CC2)c(Cl)c1F [Example 6/23, 3-Chloro-4-(4-(4,4-difluoropiperidine-1-carbonyl)-2-(5-(2-hydroxypropan-2-yl)-1,3,4-oxadiazol-2-yl)thiazol-5-yl)-2-fluoro-N-methyl-N-(2,2,2-trifluoroethyl)benzenesulfonamide] | 2300 | 40 | 6000 | – |
| C[C@H]1CCCN1C(=O)c1nc(-c2nnc(C(C)(C)O)o2)sc1-c1ccc(OCC(O)(C(F)(F)F)C(F)(F)F)cc1C(F)(F)F [Example 6/24, (S)-(2-(5-(2-Hydroxypropan-2-yl)-1,3,4-oxadiazol-2-yl)-5-(4-(3,3,3-trifluoro-2-hydroxy-2-(trifluoromethyl)propoxy)-2-(trifluoromethyl)phenyl)thiazol-4-yl)(2-methylpyrrolidin-1-yl)methanone] | 130 | – | 11 | 96 |
